{"source": "patent US7067491B2", "about": "“Heterocyclic compounds having elastase-inhibiting activity and intermediates thereof” (Dainippon Pharmaceutical Co., Ltd., priority 2002, dated 2006)", "key": {"[1]": {"target": "T1, porcine pancreas elastase (Sus scrofa, UniProt P00772)", "T1 construct": "purchased Elastin Products Co., Inc", "T1 sequence (P00772 27-266)": "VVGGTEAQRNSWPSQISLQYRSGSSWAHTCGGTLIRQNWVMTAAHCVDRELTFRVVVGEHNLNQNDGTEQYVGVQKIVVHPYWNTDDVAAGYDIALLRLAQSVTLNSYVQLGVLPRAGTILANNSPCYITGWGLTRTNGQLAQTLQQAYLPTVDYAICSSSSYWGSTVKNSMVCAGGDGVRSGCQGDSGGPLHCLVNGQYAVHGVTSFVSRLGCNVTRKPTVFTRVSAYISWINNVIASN", "experiment": "Inhibitory activity against porcine pancreas elastase", "assay_type": "biochemical", "conditions": "porcine pancreas elastase 40 ng/ml, substrate Suc-Ala-Ala-Ala-pNA 2.5 mM", "protocol": "Experiment 2: Inhibitory Activity Against Porcine Pancreas Elastase\nThe inhibitory activity was measured in the same manner as experiment 1, except for using porcine pancreas elastase (Elastin Products Co., Inc., final concentration 40 ng/ml) as a target enzyme and Suc-Ala-Ala-Ala-pNA (succinyl-alanyl-alanyl-alanyl-p-nitroanilide, Peptide Research, final concentration 2.5 mM) as a substrate."}, "[2]": {"target": "T2, human neutrophil elastase (Homo sapiens, UniProt P08246)", "T2 construct": "purchased Elastine Product Co., Inc", "T2 sequence (P08246 30-267)": "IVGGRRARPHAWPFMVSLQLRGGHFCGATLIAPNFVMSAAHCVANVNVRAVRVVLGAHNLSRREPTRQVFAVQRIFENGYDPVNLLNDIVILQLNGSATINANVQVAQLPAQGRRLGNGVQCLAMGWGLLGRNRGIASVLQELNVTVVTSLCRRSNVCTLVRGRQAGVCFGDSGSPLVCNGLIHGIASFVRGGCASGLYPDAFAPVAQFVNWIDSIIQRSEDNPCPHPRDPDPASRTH", "experiment": "Inhibitory activity on human neutrophil elastase (HNE) in vitro", "assay_type": "biochemical", "conditions": "human neutrophil elastase 0.2 U/ml, substrate MeO-Suc-Ala-Ala-Pro-Val-pNA 0.5 mM, 37° C., pH 7.5", "protocol": "Experiment 1: Inhibitory Activity on Human Neutrophil Elastase (HNE)\nThe inhibitory activity of the compound of the present invention in vitro on human neutrophil elastase was examined by this experiment.\nTo 100 mM of HEPES {[N-(2-hydroxyethyl)piperazine-N′-(2-ethanesulfonic acid)], pH 7.5}buffer solution containing 1M NaCl and 0.001% Brij-35 (polyoxyethylene lauryl ether) were added human neutrophil elastase (final concentration: 0.2 U/ml, Elastine Product Co., Inc.) and the compound of the present invention (dissolved in 10% dimethyl sulfoxide; final concentration: 10^−10˜3×10^−3 M). The mixture was pre-incubated for 3 minutes at 37° C. Thereto was added MeO-Suc-Ala-Ala-Pro-Val-pNA (methoxysuccinyl-alanyl-alanyl-prolyl-valyl-p-nitroanilide (Sigma Chemical Co.)) as a substrate to give the final concentration of 0.5 mM, and the reaction was initiated. Under this condition, the producing rate of the reaction product, p-nitroanilide (pNA) at 37° C. was estimated by measuring the absorbance at 404 nm for 3 minutes.\nThe inhibitory activity of the compound of the present invention against human neutrophil elastase (HNE) is calculated according to the following formula.\nThe concentration of the compound of the present invention to be required to achieve 50% HNE inhibition (i.e., IC50) was calculated based on the concentration-inhibitory rate curve of the compound of the present invention.\nAs a comparative compound, N-[(1S)-2-((2S)-2-{N-[(1S)-3,3,3-trifluoro-1-(methylethyl)-2-oxopropyl]carbamoyl}pyrrolidinyl)-1-(methylethyl)-2-oxoethyl](imidazol-4-yl)carboxamide was used, and the same assay was carried out. The planar structure of this compound was the same as one of compound (22) disclosed in J. Med. Chem., 1997, 40, 1876–1885."}, "[3]": {"system": "pulmonary hemorrhage induced by human neutrophil elastase (HNE)", "experiment": "Inhibitory activity on pulmonary hemorrhage induced by human neutrophil elastase (HNE)", "assay_type": "in vivo", "conditions": "hamster; for ED50: Homo sapiens, Neutrophil, po, orally administered 30 minutes prior to intratracheal HNE, hemoglobin in bronchoalveolar lavage fluid after 1 hour; for Pulmonary hemorrhage inhibitory rate (%): dose 3 mg/kg orally, 30 minutes prior to HNE", "description": "Experiment 3: Inhibitory Activity on Pulmonary Hemorrhage Induced by Human Neutrophil Elastase (HNE)\nThis experiment tested on in vivo efficacy of the compound of the present invention. When human neutrophil elastase is intratracheally administered to a hamster, the pulmonary hemorrhage is induced. A definite time later after administration of the elastase, in the bronchoalveolar lavage fluid by washing lung via trachea, hemoglobin is detected.\nHamsters (Syrian strain, 7–10 weeks old male) were divided into groups consisting of 3 to 6, and each group was treated as follows:\n(A) A Group to which the Compound of the Present Invention was not Administered (Disease Control):\nPhysiological saline solution (0.2 ml) in which 25 unit of human neutrophil elastase (Elastin Product Co., Inc.) was dissolved was intratracheally administered to a hamster to induce the pulmonary hemorrhage. One hour later after administration of elastase, the hamsters were sacrificed by exsanquination, and alveoli were transtracheally washed twice with physiological saline (2.5 ml), and the hemoglobin concentration in the bronchoalveolar lavage fluid (5 ml) was determined by measuring the absorbance at 414 nm.\n(B) A Group to which the Compound of the Present Invention was Administered:\nA fixed amount of the compound of the present invention was dissolved in dimethyl sulfoxide (DMSO), and thereto was added 0.5% tragacanth gum to prepare a suspension. The suspension was orally administered to a hamster, 30 minutes prior to the administration of human neutrophil elastase (HNE) (final concentration of DMSO, 1%), and then, human neutrophil elastase was administered in the same manner as the above method (A). After 1 hour, the concentration of hemoglobin in the bronchoalveolar lavage fluid was determined in the same manner as the above method (A).\nThe hemorrhage inhibition activity of the compound of the present invention is represented as the hemorrhage inhibiting rate in the following formula.\nThe dose of the compound of the present invention to be required to achieve 50% inhibition of pulmonary hemorrhage (i.e., ED50) was calculated based on the administration dose-hemorrhage inhibiting rate curve.\nAs a comparative example, the same experiment was also carried out on a comparative compound used in Experiment 1.\nSome of the compounds of the present invention were compared with the comparative compound on the hemorrhage inhibitory rate at the dose of 3 mg/kg."}, "ICR mice": {"system": "ICR mice", "experiment": "Acute toxicity", "assay_type": "in vivo", "conditions": "male ICR mice (5 mice), 300 mg/kg orally, after 24 hours", "protocol": "Experiment 5: Acute Toxicity\nThe compound of the present invention (each compound of Example 10, Example 11, Example 15, Example 25, and Example 40) was suspended in 0.5% tragacanth gum and the suspension was orally administered to 7 weeks old, male ICR mice (5 mice) at 300 mg/kg."}}}
{"compound": "Cc1noc(C)c1C(=O)N[C@H](C(=O)N1CCC[C@H]1C(=O)N[C@H](C(=O)C(F)(F)F)C(C)C)C(C)C", "note": "[Example 1, N-[(1S)-2-((2S)-2-{N-[(1S)-3,3,3-trifluoro-1-(methylethyl)-2-oxopropyl]carbamoyl}pyrrolidinyl)-1-(methylethyl)-2-oxoethyl](3,5-dimethylisoxazol-4-yl)carboxamide]", "values": [{"measurement": "IC50", "setting": "[1]", "result": 154, "unit": "nM"}, {"measurement": "IC50", "setting": "[2]", "result": 17, "unit": "nM"}, {"measurement": "ED50", "setting": "[3]", "result": 2.6, "unit": "mg/kg"}]}
{"compound": "CC(C)[C@H](NC(=O)c1cc(C(C)(C)C)n(C)n1)C(=O)N1CCC[C@H]1C(=O)N[C@H](C(=O)C(F)(F)F)C(C)C", "note": "[Example 25, N-[(1S)-2-((2S)-2-{N-[(1S)-3,3,3-trifluoro-1-(methylethyl)-2-oxopropyl]carbamoyl}pyrrolidinyl)-1-(methylethyl)-2-oxoethyl]-(5-tert-butyl-1-methylpyrazol-3-yl)carboxamide]", "values": [{"measurement": "Acute toxicity: death or not", "setting": "ICR mice", "result": "all were alive"}]}
{"compound": "Cc1c(C(=O)N[C@H](C(=O)N2CCC[C@H]2C(=O)N[C@H](C(=O)C(F)(F)F)C(C)C)C(C)C)cnn1-c1ccccc1", "note": "[Example 10, N-[(1S)-2-((2S)-2-{N-[(1S)-3,3,3-trifluoro-1-(methylethyl)-2-oxopropyl]carbamoyl}pyrrolidinyl)-1-(methylethyl)-2-oxoethyl]-(5-methyl-1-phenylpyrazol-4-yl)carboxamide]", "values": [{"measurement": "IC50", "setting": "[2]", "result": 10, "unit": "nM"}, {"measurement": "ED50", "setting": "[3]", "result": 1.1, "unit": "mg/kg"}, {"measurement": "Acute toxicity: death or not", "setting": "ICR mice", "result": "all were alive"}]}
{"compound": "COc1cc(C(=O)N[C@H](C(=O)N2CCC[C@H]2C(=O)N[C@H](C(=O)C(F)(F)F)C(C)C)C(C)C)on1", "note": "[Example 11, N-[(1S)-2-((2S)-2-{N-[(1S)-3,3,3-trifluoro-1-(methylethyl)-2-oxopropyl]carbamoyl}pyrrolidinyl)-1-(methylethyl)-2-oxoethyl]-(3-methoxyisoxazol-5-yl)carboxamide]", "values": [{"measurement": "IC50", "setting": "[2]", "result": 27, "unit": "nM"}, {"measurement": "ED50", "setting": "[3]", "result": 1.5, "unit": "mg/kg"}, {"measurement": "Acute toxicity: death or not", "setting": "ICR mice", "result": "all were alive"}]}
{"compound": "COc1ccc(-n2ncc(C(=O)N[C@H](C(=O)N3CCC[C@H]3C(=O)N[C@H](C(=O)C(F)(F)F)C(C)C)C(C)C)c2C)cc1", "note": "[Example 40, N-[(1S)-2-((2S)-2-{N-[(1S)-3,3,3-trifluoro-1-(methylethyl)-2-oxopropyl]carbamoyl}pyrrolidinyl)-1-(methylethyl)-2-oxoethyl]-[5-methyl-1-(4-methoxyphenyl)pyrazol-4-yl]carboxamide]", "values": [{"measurement": "IC50", "setting": "[2]", "result": 8.4, "unit": "nM"}, {"measurement": "Pulmonary hemorrhage inhibitory rate (%)", "setting": "[3]", "result": 70, "unit": "%"}, {"measurement": "Acute toxicity: death or not", "setting": "ICR mice", "result": "all were alive"}]}
{"compound": "Cc1c(C(=O)N[C@H](C(=O)N2CCC[C@H]2C(=O)N[C@H](C(=O)C(F)(F)F)C(C)C)C(C)C)cnn1-c1ccc(Cl)cc1", "note": "[Example 38, N-[(1S)-2-((2S)-2-{N-[(1S)-3,3,3-trifluoro-1-(methylethyl)-2-oxopropyl]carbamoyl}pyrrolidinyl)-1-(methylethyl)-2-oxoethyl]-[1-(4-chlorophenyl)-5-methylpyrazol-4-yl]carboxamide]", "values": [{"measurement": "IC50", "setting": "[2]", "result": 8.3, "unit": "nM"}, {"measurement": "Pulmonary hemorrhage inhibitory rate (%)", "setting": "[3]", "result": 63, "unit": "%"}]}
{"compound": "Cc1c(C(=O)N[C@H](C(=O)N2CCC[C@H]2C(=O)N[C@H](C(=O)C(F)(F)F)C(C)C)C(C)C)cnn1-c1ccc(C(F)(F)F)cc1", "note": "[Example 47, N-[(1S)-2-((2S)-2-{N-[(1S)-3,3,3-trifluoro-1-(methylethyl)-2-oxopropyl]carbamoyl}pyrrolidinyl)-1-(methylethyl)-2-oxoethyl]-{5-methyl-1-[4-(trifluoromethyl)phenyl]pyrazol-4-yl}carboxamide]", "values": [{"measurement": "IC50", "setting": "[2]", "result": 15, "unit": "nM"}, {"measurement": "Pulmonary hemorrhage inhibitory rate (%)", "setting": "[3]", "result": 60, "unit": "%"}]}
{"compound": "Cc1nnsc1C(=O)N[C@H](C(=O)N1CCC[C@H]1C(=O)N[C@H](C(=O)C(F)(F)F)C(C)C)C(C)C", "note": "[Example 3, N-[(1S)-2-((2S)-2-{N-[(1S)-3,3,3-trifluoro-1-(methylethyl)-2-oxopropyl]carbamoyl}pyrrolidinyl)-1-(methylethyl)-2-oxoethyl]-(4-methyl-1,2,3-thiadiazol-5-yl)carboxamide]", "values": [{"measurement": "IC50", "setting": "[1]", "result": 155, "unit": "nM"}, {"measurement": "IC50", "setting": "[2]", "result": 13, "unit": "nM"}, {"measurement": "ED50", "setting": "[3]", "result": 1.6, "unit": "mg/kg"}]}
{"compound": "CCc1noc(C)c1C(=O)N[C@H](C(=O)N1CCC[C@H]1C(=O)N[C@H](C(=O)C(F)(F)F)C(C)C)C(C)C", "note": "[Example 4, N-[(1S)-2-((2S)-2-{N-[(1S)-3,3,3-trifluoro-1-(methylethyl)-2-oxopropyl]carbamoyl}pyrrolidinyl)-1-(methylethyl)-2-oxoethyl]-(3-ethyl-5-methylisoxazol-4-yl)carboxamide]", "values": [{"measurement": "IC50", "setting": "[2]", "result": 17, "unit": "nM"}, {"measurement": "ED50", "setting": "[3]", "result": 2.5, "unit": "mg/kg"}]}
{"compound": "Cc1c(C(=O)N[C@H](C(=O)N2CCC[C@H]2C(=O)N[C@H](C(=O)C(F)(F)F)C(C)C)C(C)C)cnn1-c1ccccc1F", "note": "[Example 45]", "values": [{"measurement": "IC50", "setting": "[2]", "result": 8.4, "unit": "nM"}, {"measurement": "Pulmonary hemorrhage inhibitory rate (%)", "setting": "[3]", "result": 58, "unit": "%"}]}
{"compound": "CC(C)Oc1cc(C(=O)N[C@H](C(=O)N2CCC[C@H]2C(=O)N[C@H](C(=O)C(F)(F)F)C(C)C)C(C)C)on1", "note": "[Example 12, N-[(1S)-2-((2S)-2-{N-[(1S)-3,3,3-trifluoro-1-(methylethyl)-2-oxopropyl]carbamoyl}pyrrolidinyl)-1-(methylethyl)-2-oxoethyl]-[3-(methylethoxy)isoxazol-5-yl]carboxamide]", "values": [{"measurement": "IC50", "setting": "[2]", "result": 16, "unit": "nM"}, {"measurement": "Pulmonary hemorrhage inhibitory rate (%)", "setting": "[3]", "result": 66, "unit": "%"}]}
{"compound": "Cc1cc(C(=O)N[C@H](C(=O)N2CCC[C@H]2C(=O)N[C@H](C(=O)C(F)(F)F)C(C)C)C(C)C)no1", "note": "[Example 15, N-[(1S)-2-((2S)-2-{N-[(1S)-3,3,3-trifluoro-1-(methylethyl)-2-oxopropyl]carbamoyl}pyrrolidinyl)-1-(methylethyl)-2-oxoethyl]-(5-methylisoxazol-3-yl)carboxamide]", "values": [{"measurement": "IC50", "setting": "[2]", "result": 24, "unit": "nM"}, {"measurement": "ED50", "setting": "[3]", "result": 0.62, "unit": "mg/kg"}, {"measurement": "Acute toxicity: death or not", "setting": "ICR mice", "result": "all were alive"}]}
{"compound": "CC(C)[C@H](NC(=O)c1noc2ccccc12)C(=O)N1CCC[C@H]1C(=O)N[C@H](C(=O)C(F)(F)F)C(C)C", "note": "[Example 2, N-[(1S)-2-((2S)-2-{N-[(1S)-3,3,3-trifluoro-1-(methylethyl)-2-oxopropyl]carbamoyl}pyrrolidinyl)-1-(methylethyl)-2-oxoethyl](benzo [d]isoxazol-3-yl)carboxamide]", "values": [{"measurement": "IC50", "setting": "[1]", "result": 215, "unit": "nM"}, {"measurement": "IC50", "setting": "[2]", "result": 8.1, "unit": "nM"}, {"measurement": "ED50", "setting": "[3]", "result": 0.86, "unit": "mg/kg"}]}
